{
  "source": "patent US9725490B2",
  "about": "“ERAP1-derived peptide and use thereof” (TOKUSHIMA UNIVERSITY, priority 2011, dated 2017)",
  "type_in_all_cases": "cell-based, human",
  "key": {"[1]": {"system": "Akt, MAPK and ERα phosphorylation", "experiment": "Phosphorylation of Akt, MAPK and ERα in tamoxifen-resistant MCF-7 cells", "conditions": "Tam-R MCF-7, tamoxifen alone or tamoxifen and E2", "method": "FIG. 14 is a diagram illustrating the suppression effect of the ERAP1-peptide on tamoxifen-resistant MCF-7 cells. […] The tamoxifen-resistant MCF-7 cells were treated with the ERAP1-peptide in each concentration (0, 5 and 10 μM). Then, immediately, the cells were stimulated with 10 nM E2 for 24 hours.\nMCF-7 cells and tamoxifen-resistant MCF-7 cells were seeded in 1×10^5/well in DMEM/F12 culture medium containing phenol red on a 24-well plate and stood in a CO2 incubator for 24 hours. Then, the culture medium was exchanged with DMEM/F12 culture medium containing 10% FBS, 1% penicillin/streptomycin and 1 μM tamoxifen, and not containing phenol red, and the cells were further pre-cultured for 24 hours. The supernatant was removed, and then 180 μl of […] ERAP1-peptide was added (final concentration: 10 μM), and subsequently 20 μl of 100 nM E2 was added (final concentration: 10 nM), and the mixture was reacted for 24 hours. The reaction solution was removed, and then 100 μl of SDS-sample buffer was added and the cells were lysed. The cells were subjected to boiling treatment at 95° C. for 5 minutes, and subjected to polyacrylic amide electrophoresis. Phosphorylations of Akt and MAPK were detected with anti-phosphorylation Akt (Ser473) (587F11) and anti-phosphorylation p44/42 MAP Kinase (Thr202/Tyr204) antibodies, and phosphorylation of ERα was detected with anti-phosphorylation ERα (Ser104/106), anti-phosphorylation ERα (Ser118), anti-phosphorylation ERα (Ser167), anti-phosphorylation ERα (Ser305) and anti-phosphorylation ERα (Tyr537) antibodies."}, "[2]": {"system": "MCF-7 cells", "experiment": "Cell cycle FACS analysis, MCF-7", "conditions": "10 μM ERAP1-peptide and/or 10 nM tamoxifen, 10 nM E2 24 hours", "method": "FIG. 6-2 is a diagram illustrating that ERAP1-peptide treatment suppresses ERα-dependent cell proliferation of breast cancer cell lines. […] MCF-7 cells were treated with 10 μM ERAP1-peptide or 10 μM tamoxifen. Then, immediately, the cells were stimulated with 10 nM E2 for 24 hours. After the immobilization, the cells were stained with propidium iodide, and analyzed by flow cytometry.\nFIG. 19 is a diagram illustrating the results of FACS analysis showing the effects of concomitant use of the ERAP1-peptide and tamoxifen on the cell cycle.\nThe cells were fixed with cold 70% ethanol, and stained with 20 μg/ml propidium iodide (Sigma) and 1 mg/ml ribonuclease A (Sigma), and analyzed with FACSCalibur (B D, Franklin Lakes, N.J., USA). The cell cycle was evaluated using CellQuest software (BD).\nMCF-7 cells were treated with 10 μM ERAP1-peptide and/or 10 nM tamoxifen. Then, immediately, the cells were stimulated with 10 nM E2 for 24 hours. After the immobilization, the cells were stained with propidium iodide, and analyzed by flow cytometry."}, "[3]": {"system": "MCF-7 cells", "experiment": "MTT assay of tamoxifen with ERAP1 knockdown", "conditions": "10 μM tamoxifen, 96 hours, 1 μM E2", "method": "(§1) FIG. 17 is a diagram illustrating the influence of ERAP1 knockdown on the suppression effect on proliferation of breast cancer cells by tamoxifen.\nThe inhibition effect of tamoxifen when ERAP1 was knocked down by siRNA method was evaluated with MTT assay. The sequences of si-ERAP1, and si-control (si-EGFP) and the method for the experiment were in accordance with the report of Kim et, al. (Cancer Science, 2009, 100; 1468-78) MCF-7 cells were seeded in […] on a 48-well plate, and stimulated with 1 μM E2, and after 24 hours, treated with si-ERAP1 or si-control. After 24 hours, the cells were treated with 10 μM tamoxifen and the number of living cells was evaluated with MTT assay after 96 hours."}, "[4]": {"system": "ERAP1 expression", "experiment": "ERAP1 expression, quantitative RT-PCR and Western, MCF-7", "conditions": "tamoxifen, 10 nM E2 24 hours"}, "[5]": {"system": "ERE reporter activity", "experiment": "ERE-luciferase assay of tamoxifen with ERAP1 knockdown", "conditions": "10 μM tamoxifen, 96 hours, 1 μM E2", "method": "as §1\nIn addition, the inhibition effect of tamoxifen when ERAP1 was knocked down by siRNA method was evaluated with ERE-luciferase assay. MCF-7 cells were seeded in 2×10^4/well on a 96-well plate, and were temporarily transfected with ERE-luciferase reporter. Then, the cells were stimulated with 1 μM E2, and after 24 hours, treated with si-ERAP1 or si-control. After 24 hours, the cells were treated with 10 μM tamoxifen and after 96 hours, ERE luciferase activity was measured."}},
  "data": [
    {"smiles": "CC/C(=C(\\c1ccccc1)c1ccc(OCCN(C)C)cc1)c1ccccc1", "note": "[tamoxifen, reference compound]", "values": [
      {"measurement": "phosphorylations of Akt and MAPK", "setting": "[1]", "result": "accelerated phosphorylations of Akt and MAPK"},
      {"measurement": "cell cycle", "setting": "[2]", "result": "increase of cells having stopped in the G1 phase"},
      {"measurement": "cell proliferation, siERAP1 versus si-control", "setting": "[3]", "result": "the cell proliferation was suppressed more"},
      {"measurement": "expression of ERAP1, mRNA level and protein level", "setting": "[4]", "result": "suppressed depending on the concentration of TAM"},
      {"measurement": "ERE reporter activity, siERAP1 versus si-control", "setting": "[5]", "result": "the reporter activity was suppressed more"}
    ]}
  ]
}
